Series [1] can be described thus: log P by HPLC on reversed-phase column (EEC Directive 79/831 Annex V.A8). Particulars: reversed-phase C18 HPLC column, pH 2.3, 43° C. It counts as physicochemical. As for the experimental part: The log P values given in the preparation examples and tables above are determined in accordance with EEC Directive 79/831 Annex V.A8 by HPLC (High Performance Liquid Chromatography) on a reversed-phase column (C 18). Temperature: 43° C.
In the acidic range, determination is carried out at pH 2.3 using the mobile phases 0.1% aqueous phosphoric acid and acetonitrile; linear gradient from 10% acetonitrile to 90% acetonitrile (in the tables marked with a)).
Calibration is carried out using unbranched alkan-2-ones (of 3 to 16 carbon atoms) with known lop P values (determination of the log P values by the retention times using linear interpolation between two successive alkanones).

For series [2], the system named is Lucilia cuprina 1st instar larvae. Nature of the series: Blowfly larval assay (Lucilia cuprina). It counts as in vivo. Particulars: 100 ppm. The protocol: (§1) 10 mg active compound are dissolve in 0.5 ml dimethyl sulphoxide. Serial dilutions are made to obtain the desired rates.
Approximately 20 Lucilia cuprina 1st instar larvae are transferred into a test tube containing 1 cm^3 of minced horse meat and 0.5 ml aqueous dilution of test compound. After 48 hrs percentage of larval mortality are recorded.
100% efficacy=all larvae are killed 0% efficacy=normally developed larvae after 48 hrs

Series [3] relates to Boophilus microplus (SP-resistant Parkhurst strain). Kind of series: Boophilus microplus test (INJ), resistant cattle tick, injection method. Particulars: concentration of active compound 20 μM, injection into abdomen of adult satiated females. The class given is in vivo. As for the experimental part: Test with Resistant Monoxenic Cattle Tick/SP-Resistant Parkhurst Strain Injection Method
Boophilus microplus (INJ)
10 mg active compound are dissolve in 0.5 ml Dimethylsulfoxid. Serial dilutions are made to obtain the desired rates.
The test is carried out in 5 replications. 1 μl of the solutions is injected into the abdomen, and the animals are transferred to dishes and kept in a climate-controlled room. After 7 days, activity is checked by examination for deposition of fertile eggs. Eggs whose fertility is not externally visible are stored in glass tubes in a controlled-environment cabinet until the larvae have hatched after ca. 24 days. An activity of 100% denotes that none of the ticks has laid fertile eggs.

Another series relates to Musca domestica. Nature of the series: Housefly assay (Musca domestica). The class given is in vivo. To be noted: 100 ppm, adult flies. The protocol: as §1
Prior to the assay, a piece of kitchen sponge (ca. Ø 1.5 cm) is soaked with 0.8 ml of sugar solution and 0.2 ml of aqueous compound dilution and is placed into a container (4×4×2 cm). 10 adult Musca domestica flies (WHO/N strain) are anaesthetized by CO2 and also placed into the container. The container is closed with a perforated lid. […]
100% efficacy=all flies are killed 0% efficacy=no flies are killed

The subject of a further series is Plutella xylostella. Kind of series: Plutella test. It counts as in vivo. Particulars: 20 ppm, cabbage leaves dipped. The protocol: (§2) To produce a suitable preparation of active compound, 1 part by weight of active compound is mixed with the stated amounts of solvent and emulsifier, and the concentrate is diluted with emulsifier-containing water to the desired concentration.
Cabbage leaves (Brassica oleracea) are treated by being dipped into the preparation of active compound of the desired concentration and are populated with caterpillars of the diamondback moth (Plutella xylostella) while the leaves are still moist.
(§3) After the desired period of time, the kill in % is determined. 100% means that all caterpillars have been killed; 0% means that none of the caterpillars have been killed.

The test system of another series is Myzus persicae. Nature of the series: Myzus test (spray application). The class given is in vivo. Particulars: topical, 120 h, spray on Chinese cabbage leaves, after 5 d, read-out: Kill rate in % after 5 d. As for the experimental part: Myzus Test (Spray Application)
as §2
Chinese cabbage leaves (Brassica pekinensis), which are infested by the green peach aphid (Myzus persicae), are treated by being sprayed with the preparation of the active compound of the desired concentration.
(§4) After the specified period of time, the mortality in % is determined. 100% means that all the […] have been killed; 0% means that none of the […] have been killed.

The next series deals with Spodoptera exigua. Nature of the series: Spodoptera exigua test. The class given is in vivo. Particulars: 168 h, cabbage leaves dipped, after 7 d, read-out: Kill rate in % after 7 d. As for the experimental part: as §2
Cabbage leaves (Brassica oleracea) are treated by being dipped into the preparation of active compound of the desired concentration and are populated with caterpillars of the army worm (Spodoptera exigua) while the leaves are still moist.
as §3

Another series has as its system Tetranychus urticae. Kind of series: Tetranychus test (OP-resistant/spray application). To be noted: 100 g/ha, spray on bean leaf slices. It counts as in vivo. As for the experimental part: Tetranychus test (OP-Resistant/Spray Application)
as §2
Bean leave slices (Phaseolus vulgaris), which are infested with all stages of the two-spotted spider mite (Tetranychus urticae), are treated by being sprayed with the preparation of the active compound of the desired concentration.
as §4

A further series has as its system Spodoptera frugiperda. Kind of series: Spodoptera frugiperda test (spray application). The class given is in vivo. To be noted: topical, 168 h, 20 g/ha, spray on maize leaf slices, after 7 d, read-out: Kill rate in % after 7 d. As for the experimental part: Spodoptera frugiperda Test (Spray Application)
as §2
Maize leave slices (Zea mays) are treated by being sprayed with the preparation of the active compound of the desired concentration and are infested with caterpillars of the fall army worm (Spodoptera frugiperda) after the leaves have dried.
as §4

As to `Cc1cc(C(F)(C(F)F)C(F)(F)F)ccc1N` (stereo not shown) [4-(1-Difluoromethyl-1,2,2,2-tetrafluoro-ethyl)-2-methyl-phenylamine], in [1], the chromatographic logP was found to be 2.74. `Cc1cc(C(C(F)F)C(F)(F)F)ccc1N` (stereo not shown) [4-(1-Difluoromethyl-2,2,2-trifluoro-ethyl)-2-methyl-phenylamine] had a chromatographic logP in series [1] of 2.02. Regarding `CSC[C@H](C)N=C1OC(=O)c2cccc(I)c21` [4-Iodo-3-[(S)-1-methyl-2-methylsulfanyl-ethylimino]-3H-isobenzofuran-1-one], the chromatographic logP in series [1] was 3.87. With `CCSC[C@H](C)NC(=O)c1c(I)cccc1C(=O)Nc1ccc(C(F)(C(F)(F)F)C(F)(F)Br)cc1C` (stereo partly shown) [Compound 1], in [2], the “Kill rate in % after 2 d” value is on record as 100%.

Take `CCSC[C@H](C)NC(=O)c1c(I)cccc1C(=O)Nc1ccc(C(C(F)F)C(F)(F)F)cc1C` (stereo partly shown) [Compound 4]: the “Kill rate in % after 2 d” value in series [2] is listed as 100%. Also, the “Kill rate in % after 7 d” value in [3] is recorded as 100%. Regarding `CCSC[C@H](C)NC(=O)c1c(I)cccc1C(=O)Nc1ccc(C(F)(C(F)F)C(F)(F)F)cc1C` (stereo partly shown) [Compound 5], the melting point amounted to 105 °C. Further, the “Kill rate in % after 7 d” value in [3] is given as 100%. Also, the “Kill rate in % after 4 d” value in the series with Musca domestica is given as 100%. Molecule `CSC[C@H](C)NC(=O)c1c(I)cccc1C(=O)Nc1ccc(C(C(F)F)C(F)(F)F)cc1C` (stereo partly shown) [Compound 11] yielded a melting point of 184 °C. Besides, the “Kill rate in % after 7 d” value with Plutella xylostella was determined as 100%. Regarding `Cc1cc(C(F)(C(F)F)C(F)(F)F)ccc1NC(=O)c1cccc(I)c1C(=O)N[C@@H](C)CS(C)(=O)=O` (stereo partly shown) [Compound 18], the melting point was 124 °C. Also, in the series with Plutella xylostella, the “Kill rate in % after 7 d” value came to 100%. Molecule `CCSC[C@H](C)NC(=O)c1c(I)cccc1C(=O)Nc1ccc(C(C(F)F)C(F)(F)F)cc1F` (stereo partly shown) [Compound 21] showed a melting point of 144 °C. The “Kill rate in % after 4 d” value in the series on Musca domestica is listed as 100%. Regarding `CCSC[C@H](C)NC(=O)c1c(I)cccc1C(=O)Nc1ccc(C(C(F)F)C(F)(F)F)cc1Cl` (stereo partly shown) [Compound 23], the melting point was determined as 165 °C. Also, the “Kill rate in % after 7 d” value in series [3] is 100%.

For `CCSC[C@H](C)NC(=O)c1c(I)cccc1C(=O)Nc1ccc(C(C(F)F)C(F)(F)F)cc1Br` (stereo partly shown) [Compound 24], the melting point came to 160 °C. The “Kill rate in % after 7 d” value in series [3] was determined as 100%. In the case of `CCS(=O)(=O)C[C@H](C)NC(=O)c1c(I)cccc1C(=O)Nc1ccc(C(F)(C(F)F)C(F)(F)F)cc1Cl` (stereo partly shown) [Compound 25], in series [2], the “Kill rate in % after 2 d” value was found to be 90%.

`C[C@@H](CS(C)(=O)=O)NC(=O)c1c(I)cccc1C(=O)Nc1ccc(C(C(F)F)C(F)(F)F)cc1Cl` (stereo partly shown) [Compound 28] gave a melting point of 116 to 120 °C. The “Kill rate in % after 4 d” value in the series with Musca domestica is reported as 100%. As for `C[C@@H](CS(C)(=O)=O)NC(=O)c1c(I)cccc1C(=O)Nc1ccc(C(C(F)F)C(F)(F)F)cc1Br` (stereo partly shown) [Compound 31], the pest or weed control at 100 g/ha with Myzus persicae amounted to 100%. In the series with Musca domestica, the “Kill rate in % after 4 d” value turned out to be 100%. Regarding `C[C@@H](CS(C)(=O)=O)NC(=O)c1c(I)cccc1C(=O)Nc1ccc(C(F)(C(F)F)C(F)(F)F)cc1F` (stereo partly shown) [Compound 32], in series [2], the “Kill rate in % after 2 d” value was 100%. Besides, the “Kill rate in % after 4 d” value in the series on Musca domestica was 100%. In the case of `C[C@@H](CS(C)(=O)=O)NC(=O)c1c(I)cccc1C(=O)Nc1ccc(C(C(F)F)C(F)(F)F)cc1F` (stereo partly shown) [Compound 33], the melting point fell in the range of 144 to 147 °C. Further, in series [3], the “Kill rate in % after 7 d” value came out at 100%. In the series with Musca domestica, the “Kill rate in % after 4 d” value was found to be 100%. As for `CCS(=O)(=O)C[C@H](C)NC(=O)c1c(I)cccc1C(=O)Nc1ccc(C(F)(C(F)F)C(F)(F)F)cc1Br` (stereo partly shown) [Compound 34], the melting point is 134 °C. For the same molecule, the pest or weed control at 20 ppm in the series with Spodoptera exigua stood at 100%. In turn, `CCS(=O)(=O)C[C@H](C)NC(=O)c1c(I)cccc1C(=O)Nc1ccc(C(C(F)F)C(F)(F)F)cc1Br` (stereo partly shown) [Compound 35] had a melting point of 122 °C. Further, the “Kill rate in % after 4 d” value in the series on Musca domestica was determined as 100%.

In the case of `CCS(=O)(=O)C[C@H](C)NC(=O)c1c(I)cccc1C(=O)Nc1ccc(C(F)(C(F)F)C(F)(F)F)cc1F` (stereo partly shown) [Compound 36], the “Kill rate in % after 2 d” value in series [2] was 100%. With `CCS(=O)(=O)C[C@H](C)NC(=O)c1c(I)cccc1C(=O)Nc1ccc(C(C(F)F)C(F)(F)F)cc1F` (stereo partly shown) [Compound 37], in series [2], the “Kill rate in % after 2 d” value is recorded as 100%. Consider `CSC[C@H](C)NC(=O)c1c(Cl)cccc1C(=O)Nc1ccc(C(F)(C(F)(F)F)C(F)(F)Br)cc1C` (stereo partly shown) [Compound 38], for which the melting point lay within 184 to 186 °C. Moreover, the “Kill rate in % after 7 d” value with Plutella xylostella was found to be 100%. For the molecule `CSC[C@H](C)NC(=O)c1c(Cl)cccc1C(=O)Nc1ccc(C(C(F)F)C(F)(F)F)cc1Cl` (stereo partly shown) [Compound 42], the “Kill rate in % after 5 d” value in the series on Tetranychus urticae is 80%.

`Cc1cc(C(F)(C(F)F)C(F)(F)F)ccc1NC(=O)c1cccc(Cl)c1C(=O)N[C@@H](C)CS(C)(=O)=O` (stereo partly shown) [Compound 44]: the “Kill rate in % after 5 d” value in the series on Tetranychus urticae worked out at 80%. In addition, the “Kill rate in % after 7 d” value with Plutella xylostella stood at 100%. The molecule `C[C@@H](CS(C)(=O)=O)NC(=O)c1c(Cl)cccc1C(=O)Nc1ccc(C(F)(C(F)F)C(F)(F)F)cc1Cl` (stereo partly shown) [Compound 47] registered a melting point of 180 °C. For the same molecule, in the series on Spodoptera exigua, the pest or weed control at 20 ppm worked out at 100%.

As for `CCSC[C@H](C)NC(=O)c1c(Br)cccc1C(=O)Nc1ccc(C(C(F)F)C(F)(F)F)cc1Cl` (stereo partly shown) [Compound 54], the melting point is 100 °C. In the series with Plutella xylostella, the “Kill rate in % after 7 d” value is 100%.

As to `CCS(=O)(=O)C[C@H](C)NC(=O)c1c(Cl)cccc1C(=O)Nc1ccc(C(C(F)F)C(F)(F)F)cc1Cl` (stereo partly shown) [Compound 56], the melting point amounted to 116 °C. Moreover, the pest or weed control at 20 ppm in the series with Spodoptera exigua is 100%.

Consider `CCS(=O)(=O)C[C@H](C)NC(=O)c1c(Br)cccc1C(=O)Nc1ccc(C(C(F)F)C(F)(F)F)cc1Cl` (stereo partly shown) [Compound 59], for which the melting point came to 121 °C. In addition, the pest or weed control at 20 ppm with Spodoptera exigua was 100%. For the molecule `CSC[C@H](C)NC(=O)c1c(Br)cccc1C(=O)Nc1ccc(C(F)(C(F)F)C(F)(F)F)cc1Br` (stereo partly shown) [Compound 67], the melting point is 138 to 142 °C. Further, the “Kill rate in % after 7 d” value in the series on Plutella xylostella is 100%. On to `CCS(=O)(=O)C[C@H](C)NC(=O)c1c(Br)cccc1C(=O)Nc1ccc(C(F)(C(F)F)C(F)(F)F)cc1Br` (stereo partly shown) [Compound 69], for which, in series [2], the “Kill rate in % after 2 d” value came to 100%. Also, the pest or weed control at 20 g/ha in the series with Spodoptera frugiperda is 100%.

By chromatographic logP is commonly meant a lipophilicity value derived from retention on a column. The low end stands for a more hydrophilic compound, the high end for a more lipophilic compound. Usually melting point stands for the temperature of the solid-liquid transition.

The record behind these values is patent publication US20090118375A1, “Optically active phthalamides” (priority 2004, published 2009).
